Calls of active or inactive are those of the source. Rule as the data show it, for most assays here: actives have a measured EC50 and inactives only a lower limit.
Tests used:
[1] = target: T1, Polyadenylate-binding protein 1 (Homo sapiens, UniProt P11940); test: MLLE binding blockers, Cy5 peptide tracer – biochemical, fluorescence polarization, Cy5-PAM2 peptide, secondary, miRNA deadenylation inhibitor project, dose response (AID 602260); type: functional; conditions: read-out: IC50_Mean
[2] = target: T1, Polyadenylate-binding protein 1; test: MLLE domain peptide-binding blockers, IC50 – biochemical, fluorescence polarization, FITC-PAM2 peptide, dose response (AID 602259); type: functional; conditions: read-out: IC50_Mean
[3] = Luminescence Cell-Based Dose Confirmation HTS to Identify Activators of 5'UTR Stem-Loop Driven Alpha-Synuclein mRNA Translation in H4 Neuroglioblastoma Cells. [Related pubchem assays: 1829 (Project Summary), 1814 (Primary HTS)]; type: functional
H4 = test: Luminescence Cell-Based Dose Response HTS to Identify Activators of 5'UTR Stem-Loop Driven Prion Protein mRNA Translation in H4 Neuroglioblastoma Cells. [Related pubchem assays: 1829 (Project Summary), 1814 (Primary HTS)]; type: functional; conditions: Homo sapiens
[4] = Luminescence Cell-Based Dose Response HTS to Identify Activators of Luciferase Translation or Activity in H4 […] Cells. [Related pubchem assays: 1829 (Project Summary), 1814 (Primary HTS)]; type: functional
[5] = NIH-3T3 fibroblast cytotoxicity, dose response, cytotoxicity control, cell-based, fluorescence, Alamar Blue, secondary assay (AID 2327); type: functional;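 also: NIH-3T3 mouse fibroblasts cultured with fluconazole at 8 µg/mL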
[6] = fluconazole-exposed Candida albicans growth modulators – fluorescence, retest, confirmation (AID 2467); type: functional, cell-based
Protein RecA = target: T2, Protein RecA (Mycobacterium tuberculosis, UniProt P9WHJ3); test: Fluorescence Cell-Free Homogeneous Dose Retest to Identify Inhibitors of RecA-Intein Splicing Activity. [Related pubchem assays (depositor defined):AID2097, AID2223, AID489010, AID492950]; type: functional
T2 sequence (P9WHJ3 whole entry): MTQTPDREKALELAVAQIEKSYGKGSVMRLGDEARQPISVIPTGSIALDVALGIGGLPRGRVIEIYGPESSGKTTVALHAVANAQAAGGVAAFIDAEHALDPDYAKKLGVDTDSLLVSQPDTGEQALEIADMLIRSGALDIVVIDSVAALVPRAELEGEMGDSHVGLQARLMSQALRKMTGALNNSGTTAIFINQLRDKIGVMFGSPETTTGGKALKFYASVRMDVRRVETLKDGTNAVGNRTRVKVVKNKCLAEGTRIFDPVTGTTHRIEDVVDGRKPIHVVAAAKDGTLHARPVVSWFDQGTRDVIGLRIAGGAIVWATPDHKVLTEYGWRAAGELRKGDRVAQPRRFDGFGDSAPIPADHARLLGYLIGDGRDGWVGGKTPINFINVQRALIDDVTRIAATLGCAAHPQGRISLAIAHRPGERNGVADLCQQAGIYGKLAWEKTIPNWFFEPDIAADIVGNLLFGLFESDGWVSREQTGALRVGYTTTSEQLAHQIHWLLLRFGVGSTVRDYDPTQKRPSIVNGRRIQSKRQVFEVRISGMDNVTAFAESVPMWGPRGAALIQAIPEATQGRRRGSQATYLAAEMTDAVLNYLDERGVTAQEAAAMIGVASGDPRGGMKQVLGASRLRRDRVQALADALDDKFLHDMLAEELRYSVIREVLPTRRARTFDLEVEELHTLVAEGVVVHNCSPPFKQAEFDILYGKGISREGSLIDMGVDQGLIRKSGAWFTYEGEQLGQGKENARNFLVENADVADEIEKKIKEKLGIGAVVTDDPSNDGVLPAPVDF

[7] = target: T3, Replicative DNA helicase DnaB (Mycobacterium tuberculosis, UniProt P9WMR3); test: DnaB intein splicing inhibitors, dose response, biochemical, cell-free fluorescence (AID 449749); type: functional
T3 sequence (P9WMR3 whole entry): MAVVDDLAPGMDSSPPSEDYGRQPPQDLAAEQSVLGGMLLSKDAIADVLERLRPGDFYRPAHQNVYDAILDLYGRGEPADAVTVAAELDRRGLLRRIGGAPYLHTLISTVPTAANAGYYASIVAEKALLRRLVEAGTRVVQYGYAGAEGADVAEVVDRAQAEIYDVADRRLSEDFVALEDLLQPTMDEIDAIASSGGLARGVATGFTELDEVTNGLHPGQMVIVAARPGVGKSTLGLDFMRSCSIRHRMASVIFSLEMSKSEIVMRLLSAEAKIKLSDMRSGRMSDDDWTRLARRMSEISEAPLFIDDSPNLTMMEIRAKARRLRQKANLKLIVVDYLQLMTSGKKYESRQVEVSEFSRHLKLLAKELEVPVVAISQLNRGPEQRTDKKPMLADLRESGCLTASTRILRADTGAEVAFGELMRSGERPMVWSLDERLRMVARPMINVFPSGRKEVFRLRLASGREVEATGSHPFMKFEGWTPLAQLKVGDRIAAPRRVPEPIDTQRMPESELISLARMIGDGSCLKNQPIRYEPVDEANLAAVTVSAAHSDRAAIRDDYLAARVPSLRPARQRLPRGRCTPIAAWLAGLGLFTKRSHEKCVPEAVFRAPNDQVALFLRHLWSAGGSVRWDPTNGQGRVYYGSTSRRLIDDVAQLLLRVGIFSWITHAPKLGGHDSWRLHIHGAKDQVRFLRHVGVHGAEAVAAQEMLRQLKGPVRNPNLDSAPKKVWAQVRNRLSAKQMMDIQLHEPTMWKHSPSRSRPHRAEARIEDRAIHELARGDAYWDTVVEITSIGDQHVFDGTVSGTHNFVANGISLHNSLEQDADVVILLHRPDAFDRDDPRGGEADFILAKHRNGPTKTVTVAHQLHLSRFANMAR

[8] = alpha-synuclein stem-loop luciferase translation blockers – H4 neuroglioma cells, luminescence, confirmation (AID 1988); type: functional, cell-based
[9] = luciferase reporter signal suppression in cells – H4 neuroglioma cells, luminescence, dose response (AID 1990); type: functional, cell-based
[10] = Trypanosoma cruzi growth suppression in host cells – NIH3T3 host cells, beta-gal luminescence, confirmation (AID 2044); type: functional, cell-based;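 also: intracellular parasites grown in NIH/3T3 mouse fibroblasts as host cells; luminescent beta-galactosidase reporter signal from transgenic T. cruzi replicating inside host cells; inhibitors lower the luminescence signal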
[11] = NIH3T3 cell viability loss – ATP luminescence, mouse fibroblasts, counter-screen, dose response (AID 2010); type: functional, cell-based;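 also: cells exposed to compound for about 90 hours before reading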
[12] = Luminescence Cell-Based Dose Response HTS to Identify Inhibitors of 5'UTR Stem-Loop Driven Prion Protein mRNA Translation in H4 Neuroglioblastoma Cells. [Related pubchem assays: 1827 (Project Summary), 1813 (Primary HTS)]; type: functional
Coagulation factor XII = target: T4, Coagulation factor XII (Homo sapiens, UniProt P00748); type: functional;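 also: activated factor XIIa alpha cleaving a fluorogenic AMC peptide substrate; inhibitor potency from loss of enzyme activity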
T4 sequence (P00748 whole entry): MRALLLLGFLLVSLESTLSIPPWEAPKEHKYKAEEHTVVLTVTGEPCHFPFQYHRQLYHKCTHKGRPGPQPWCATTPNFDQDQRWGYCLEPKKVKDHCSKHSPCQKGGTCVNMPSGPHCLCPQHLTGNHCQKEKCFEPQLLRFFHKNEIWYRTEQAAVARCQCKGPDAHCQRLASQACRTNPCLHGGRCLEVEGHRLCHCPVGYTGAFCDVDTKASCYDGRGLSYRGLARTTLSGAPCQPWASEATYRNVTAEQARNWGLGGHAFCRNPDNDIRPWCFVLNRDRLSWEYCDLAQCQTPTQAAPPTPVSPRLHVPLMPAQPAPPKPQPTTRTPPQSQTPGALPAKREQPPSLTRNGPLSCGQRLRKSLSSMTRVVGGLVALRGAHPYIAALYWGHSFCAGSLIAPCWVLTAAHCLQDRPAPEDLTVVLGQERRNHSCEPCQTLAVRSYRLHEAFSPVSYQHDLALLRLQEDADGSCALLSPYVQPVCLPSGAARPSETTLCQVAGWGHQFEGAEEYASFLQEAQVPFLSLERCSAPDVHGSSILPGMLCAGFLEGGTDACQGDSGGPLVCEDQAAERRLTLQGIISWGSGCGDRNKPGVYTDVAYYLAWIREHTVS

BJ [13] = test: cells; type: functional, cell-based; conditions: Homo sapiens
BJ [14] = test: BJ-TERT fibroblast viability loss – cell-based, RAS-independent, luminescence, dose response (AID 1933); type: functional; conditions: Homo sapiens
BJ [15] = test: BJ-TERT-LT-ST fibroblast viability loss – cell-based, RAS-independent, luminescence, dose response (AID 1935); type: functional; conditions: Homo sapiens;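 also: BJ fibroblasts immortalized with TERT plus LT and ST oncogenes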
[16] = DRD fibroblast viability loss – cell-based, non-viral oncogenic, luminescence, dose response (AID 1934); type: functional; conditions: Homo sapiens
Protein skinhead-1 = target: T5, Protein skinhead-1 (Caenorhabditis elegans, UniProt P34707); type: functional
T5 sequence (P34707 whole entry): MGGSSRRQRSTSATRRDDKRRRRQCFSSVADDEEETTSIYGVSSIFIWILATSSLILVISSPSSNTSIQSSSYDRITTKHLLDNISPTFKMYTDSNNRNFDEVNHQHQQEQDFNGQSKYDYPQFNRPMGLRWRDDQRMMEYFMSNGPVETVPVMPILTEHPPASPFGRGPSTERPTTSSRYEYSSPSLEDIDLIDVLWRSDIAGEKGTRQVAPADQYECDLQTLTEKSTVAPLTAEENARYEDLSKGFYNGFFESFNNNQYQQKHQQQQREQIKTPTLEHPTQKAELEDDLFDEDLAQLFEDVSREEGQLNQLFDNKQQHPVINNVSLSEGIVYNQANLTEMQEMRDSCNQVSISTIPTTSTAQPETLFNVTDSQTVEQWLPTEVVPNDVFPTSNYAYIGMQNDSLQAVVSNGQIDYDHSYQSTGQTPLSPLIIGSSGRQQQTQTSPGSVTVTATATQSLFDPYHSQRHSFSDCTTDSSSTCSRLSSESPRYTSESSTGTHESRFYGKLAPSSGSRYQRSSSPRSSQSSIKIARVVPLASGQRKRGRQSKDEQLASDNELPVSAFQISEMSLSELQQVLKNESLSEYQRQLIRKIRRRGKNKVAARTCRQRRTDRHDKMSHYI

T1 sequence (P11940 whole entry, the tested form may be a part): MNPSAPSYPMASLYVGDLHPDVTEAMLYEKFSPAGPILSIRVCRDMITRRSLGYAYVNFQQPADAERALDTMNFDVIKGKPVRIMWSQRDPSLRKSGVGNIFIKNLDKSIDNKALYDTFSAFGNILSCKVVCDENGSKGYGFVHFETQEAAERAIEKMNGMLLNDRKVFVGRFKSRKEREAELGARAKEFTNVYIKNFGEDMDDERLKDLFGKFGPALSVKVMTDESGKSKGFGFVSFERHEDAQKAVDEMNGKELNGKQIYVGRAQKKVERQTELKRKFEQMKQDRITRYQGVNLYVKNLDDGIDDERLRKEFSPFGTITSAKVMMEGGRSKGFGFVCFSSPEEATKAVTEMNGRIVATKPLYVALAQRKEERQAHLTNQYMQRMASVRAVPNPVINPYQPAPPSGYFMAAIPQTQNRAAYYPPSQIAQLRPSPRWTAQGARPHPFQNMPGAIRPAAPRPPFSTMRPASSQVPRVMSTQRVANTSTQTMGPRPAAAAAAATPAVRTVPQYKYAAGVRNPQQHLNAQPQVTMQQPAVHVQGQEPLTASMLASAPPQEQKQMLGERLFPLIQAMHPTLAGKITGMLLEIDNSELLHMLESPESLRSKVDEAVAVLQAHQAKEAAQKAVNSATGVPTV

SMILES | EC50 [3] | EC50 (H4) | EC50 [4] | IC50 (Coagulation factor XII) | other results
O=C(CC(SCCO)c1ccc2c(c1)OCO2)c1cccs1 (stereo not drawn) | 3.91 µM (active) | 9.36 µM (active) | 119 µM (active) | – | IC50 [1]: > 66 µM (inactive); IC50 [2]: > 66 µM (inactive)
O=c1c(Cl)c(NCCCO)cnn1-c1nc2ccccc2[nH]1 | 25.2 µM (active) | 88 µM (active) | – | – | EC50 [5]: 9.04 µM (inconclusive); EC50 [6]: 3.47 µM (active); EC50 (Protein RecA): 7.41 µM (active); AC50 [7]: > 380 µM (inactive)
O=C(NC(=O)c1csnn1)Nc1ccccc1Cl | 5.61 µM (active) | > 60 µM (not active) | 94 µM (active) | – | –
O=[N+]([O-])c1nn(-c2ccccc2)[n+]([O-])c1NC1CCN(Cc2ccccc2)CC1 | – | – | – | – | EC50 [8]: 10.9 µM (active); EC50 [9]: 14 µM (active); EC50 [10]: 0.25 µM (active); EC50 [11]: > 60 µM (not active); EC50 [12]: > 120 µM (not active)
COc1cc(OC)cc(C(=O)NCC(=O)Nc2ccc(-c3ccccc3)cc2)c1 | > 60 µM (not active) | 9.12 µM (active) | 55.6 µM (active) | – | –
CCn1c(O)cc(=O)nc1SCC(=O)N1CCCCC1 | – | – | – | > 50 µM (inactive) | –
CCOC(=O)c1nn(-c2ccc3c(c2)OCO3)cc1O | 16.6 µM (active) | 23.9 µM (active) | 15.7 µM (active) | – | –
Cc1ccc(C(CC(=O)NCCCN(C)C)c2ccc(OC(C)C)cc2)cc1 (stereo not drawn) | – | – | – | > 50 µM (inactive) | –
Cc1cccc(N2C(=O)NC(=O)/C(=C\c3c(-c4ccccc4)[nH]c4ccccc34)C2=O)c1 | > 120 µM (not active) | > 120 µM (not active) | 0.511 µM (active) | – | EC50 (BJ [13]): 58.6 µM (active); EC50 (BJ [14]): 3.69 µM (active); EC50 (BJ [15]): 11.5 µM (inconclusive); EC50 [16]: 3.33 µM (active)
COc1ccccc1C(=O)n1nc(-c2cccnc2)nc1N | – | – | – | 0.503 µM (active) | –
O=C(Cc1ccccc1[N+](=O)[O-])Nc1ccccc1C(=O)N1CCCC1 | – | – | – | > 50 µM (inactive) | –
O=C(Oc1cncc(Cl)c1)c1ccco1 | – | – | – | 1.39 µM (active) | IC50 (Protein skinhead-1): > 100 µM (inactive)

— ChEMBL document CHEMBL1201862, “PubChem BioAssay data set” (2004)
